Data taken from patent US6025467A, “Parathyroid hormone derivatives and their use” (Takeda Chemical Industries, Ltd., priority 1995, dated 2000).
Residues, ends and D or L forms follow the SMILES beside them.

What was measured:
PTH receptor = molecular target: T1, PTH receptor (Mus musculus, UniProt P41593); assay: cAMP increase in MC3T3-EI osteoblast-like cells (biological activity in vitro); assay type: cell-based; settings: 1 nM analogue, room temperature for 30 minutes, total cAMP by radioimmunoassay
T1 construct: a mouse cranial bone-derived osteoblast-like cell strain, MC3T3-EI cells; endogenous in cells; host or cells: MC3T3-E1 mouse osteoblast-like cells
T1 sequence (P41593 27-591): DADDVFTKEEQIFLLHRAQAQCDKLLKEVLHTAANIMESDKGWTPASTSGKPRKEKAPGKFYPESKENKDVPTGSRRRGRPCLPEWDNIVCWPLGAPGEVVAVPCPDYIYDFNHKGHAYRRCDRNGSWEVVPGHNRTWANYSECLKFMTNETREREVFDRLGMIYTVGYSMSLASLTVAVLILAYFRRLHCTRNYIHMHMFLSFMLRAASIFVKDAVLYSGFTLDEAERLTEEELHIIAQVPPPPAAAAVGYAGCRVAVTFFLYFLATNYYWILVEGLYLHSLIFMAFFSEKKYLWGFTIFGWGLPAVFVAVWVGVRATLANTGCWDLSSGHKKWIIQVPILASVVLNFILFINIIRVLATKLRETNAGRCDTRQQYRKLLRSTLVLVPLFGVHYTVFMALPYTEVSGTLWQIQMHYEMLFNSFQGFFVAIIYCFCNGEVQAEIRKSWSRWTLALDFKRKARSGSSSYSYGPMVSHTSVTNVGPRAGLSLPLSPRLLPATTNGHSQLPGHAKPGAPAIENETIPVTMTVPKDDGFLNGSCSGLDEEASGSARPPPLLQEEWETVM
Experimental: The biological activity of the PTH(1-34) peptide analogues was evaluated by the method reported by Shigeno et al., The Journal of Biological Chemistry, 263, 18369-18377 (1988) with a modification. A culture solution (Hank's solution, containing 20 mM N-2-hydroxyethylpiperazine-N'-2-ethanesulfonic acid (HEPES), 0.1% bovine serum albumin and 0.5 mM isobutylmethyl-xanthine) containing a 0.01, 0.1, 1, 10 or 100 nM peptide derivative was added in an amount of 100 μl to a mouse cranial bone-derived osteoblast-like cell strain, MC3T3-EI cells, cultivated on a 96-well multiplate (Nunclon, Nunc), followed by reaction at room temperature for 30 minutes. After addition of 100 μl of 0.2N hydrochloric acid, the plate was immersed in boiling water for 2.5 minutes to extract cyclic adenosine monophosphate (cAMP) produced by a PTH receptor from the cells. The total cAMP in the culture solution and the cells was assayed using a commercial radioimmunoassay kit (cyclic AMP [^125 I] kit "Du Pont-Daiichi", Daiichi Kagaku Yakuhin). For the biological activity of the PTH(1-34) peptide derivatives, increases in cAMP caused by 1 nM analogues are shown in Table 3.

Sprangue Dawley rats = assay: Increase in femur bone weight in rats after subcutaneous dosing; assay type: in vivo, rat; settings: 4.9 nmol/kg a day subcutaneously for two weeks; four-week-old male rats; dried right femur weight compared with vehicle group
Experimental: To four-week-old male Sprangue Dawley rats, the compounds synthesized in Example 1 […], and increases in the bone weight in their femurs were compared with that of a group to which a vehicle (0.15M NaCl, 0.001N hydrochloric acid and 2% heat-inactivated rat serum) was given. After administration, their right femurs were taken out, and the tissues around them were removed. Then, the femurs were dried at 100° C. for 3 hours and weighed.

Row | cAMP increase (PTH receptor) [pmol/well] | SMILES | bone increase (Sprangue Dawley rats) [mg]
1 | 1.81 | CC[C@H](C)[C@H](NC(=O)[C@H](CCC(=O)O)NC(=O)[C@H](CO)NC(=O)[C@@H](NC(=O)[C@@H](N)CO)C(C)C)C(=O)N[C@@H](CCC(N)=O)C(=O)N[C@@H](CC(C)C)C(=O)N[C@@H](CCSC)C(=O)N[C@@H](Cc1c[nH]cn1)C(=O)N[C@@H](CCC(=O)O)C(=O)N[C@@H](CC(C)C)C(=O)NCC(=O)N[C@@H](CCCCN)C(=O)N[C@@H](Cc1c[nH]cn1)C(=O)N[C@@H](CC(C)C)C(=O)N[C@@H](CC(N)=O)C(=O)N[C@@H](CO)C(=O)N[C@@H](CCSC)C(=O)N[C@@H](CCC(=O)O)C(=O)N[C@@H](CCCNC(=N)N)C(=O)N[C@H](C(=O)N[C@@H](CCC(=O)O)C(=O)N[C@@H](Cc1c[nH]c2ccccc12)C(=O)N[C@@H](CC(C)C)C(=O)N[C@@H](CCCNC(=N)N)C(=O)N[C@@H](CCCCN)C(=O)N[C@@H](CCCCN)C(=O)N[C@@H](CC(C)C)C(=O)N[C@@H](CCC(N)=O)C(=O)N[C@@H](CC(=O)O)C(=O)N[C@H](C(=O)N[C@@H](Cc1c[nH]cn1)C(=O)N[C@@H](CC(N)=O)C(=O)N[C@@H](Cc1ccccc1)C(=O)O)C(C)C)C(C)C [(4), [Glu^10] hPTH(1-34)] | 31.1
2 | 0.60 | CC[C@H](C)[C@H](NC(=O)[C@H](CCC(=O)O)NC(=O)[C@H](CO)NC(=O)[C@@H](NC(=O)[C@@H](N)CO)C(C)C)C(=O)N[C@@H](CCC(N)=O)C(=O)N[C@@H](CC(C)C)C(=O)N[C@@H](CCSC)C(=O)N[C@@H](Cc1c[nH]cn1)C(=O)N[C@@H](CC(=O)O)C(=O)N[C@@H](CC(C)C)C(=O)NCC(=O)N[C@@H](CCCCN)C(=O)N[C@@H](Cc1c[nH]cn1)C(=O)N[C@@H](CC(C)C)C(=O)N[C@@H](CC(N)=O)C(=O)N[C@@H](CO)C(=O)N[C@@H](CCSC)C(=O)N[C@@H](CCC(=O)O)C(=O)N[C@@H](CCCNC(=N)N)C(=O)N[C@H](C(=O)N[C@@H](CCC(=O)O)C(=O)N[C@@H](Cc1c[nH]c2ccccc12)C(=O)N[C@@H](CC(C)C)C(=O)N[C@@H](CCCNC(=N)N)C(=O)N[C@@H](CCCCN)C(=O)N[C@@H](CCCCN)C(=O)N[C@@H](CC(C)C)C(=O)N[C@@H](CCC(N)=O)C(=O)N[C@@H](CC(=O)O)C(=O)N[C@H](C(=O)N[C@@H](Cc1c[nH]cn1)C(=O)N[C@@H](CC(N)=O)C(=O)N[C@@H](Cc1ccccc1)C(=O)O)C(C)C)C(C)C [(3), [Asp^10] hPTH(1-34)] | 26.1
3 | 2.58 | CC[C@H](C)[C@H](NC(=O)[C@H](CCC(=O)O)NC(=O)[C@H](CO)NC(=O)[C@@H](NC(=O)[C@@H](N)CO)C(C)C)C(=O)N[C@@H](CCC(N)=O)C(=O)N[C@@H](CC(C)C)C(=O)N[C@@H](CCSC)C(=O)N[C@@H](Cc1c[nH]cn1)C(=O)N[C@@H](CC(=O)O)C(=O)N[C@@H](Cc1ccccc1)C(=O)NCC(=O)N[C@@H](CCCCN)C(=O)N[C@@H](Cc1c[nH]cn1)C(=O)N[C@@H](CC(C)C)C(=O)N[C@@H](CC(N)=O)C(=O)N[C@@H](CO)C(=O)N[C@@H](CCSC)C(=O)N[C@@H](CCC(=O)O)C(=O)N[C@@H](CCCNC(=N)N)C(=O)N[C@H](C(=O)N[C@@H](CCC(=O)O)C(=O)N[C@@H](Cc1c[nH]c2ccccc12)C(=O)N[C@@H](CC(C)C)C(=O)N[C@@H](CCCNC(=N)N)C(=O)N[C@@H](CCCCN)C(=O)N[C@@H](CCCCN)C(=O)N[C@@H](CC(C)C)C(=O)N[C@@H](CCC(N)=O)C(=O)N[C@@H](CC(=O)O)C(=O)N[C@H](C(=O)N[C@@H](Cc1c[nH]cn1)C(=O)N[C@@H](CC(N)=O)C(=O)N[C@@H](Cc1ccccc1)C(=O)O)C(C)C)C(C)C [(5), [Asp^10, Phe^11] hPTH(1-34)] (H-SVSEIQLMHDFGKHLNSMERVEWLRKKLQDVHNF-OH) | 20.4
